# Measurements as given in the supplement of paper PMC10307832.
# Columns and labels:
# Experiment in all cases: relative viability (nuclei count vs DMSO), 5 days (fraction); higher = more cells survive
# [1] = compound: Cc1ccc2nc(NCCN)c3ncc(C)n3c2c1 + CC(=O)Nc1cccc(-n2c(=O)n(C3CC3)c(=O)c3c(Nc4ccc(I)cc4F)n(C)c(=O)c(C)c32)c1 [Trametinib] (partner 0.02 µM)
# How it was run: (§1)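 Relative viability equals treated-well nuclei counts divided by vehicle-well nuclei counts. Counts came from 4× images of lung cancer cell lines grown in 1536-well plates for 5 days after pin-tool dosing on the day after seeding. Dosing used one drug alone or a fixed anchor-drug dose plus five library-drug doses (not always all listed) in √10 steps, and values are medians of duplicate plates.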
# [2] = compound: Cc1ccc2nc(NCCN)c3ncc(C)n3c2c1 + CC1(C)CCC(c2ccc(Cl)cc2)=C(CN2CCN(c3ccc(C(=O)NS(=O)(=O)c4ccc(N[C@H](CCN5CCOCC5)CSc5ccccc5)c(S(=O)(=O)C(F)(F)F)c4)cc3)CC2)C1 [Navitoclax] (partner 0.5 µM)
# How it was run: as §1
# [3] = compound: Cc1ccc2nc(NCCN)c3ncc(C)n3c2c1 + C[C@]1(O)C[C@@H](c2nc(-c3ccc4ccc(-c5ccccc5)nc4c3)c3c(N)nccn32)C1 [Linsitinib] (partner 1 µM)
# How it was run: as §1
# [4] = compound: Cc1ccc2nc(NCCN)c3ncc(C)n3c2c1 + CC(=O)c1c(C)c2cnc(Nc3ccc(N4CCNCC4)cn3)nc2n(C2CCCC2)c1=O [Palbociclib] (partner 0.5 µM)
# How it was run: as §1
Cell Line,relative viability ([1]; first compound 0.04 µM),relative viability ([1]; first compound 0.1265 µM),relative viability ([1]; first compound 0.4 µM),relative viability ([1]; first compound 1.265 µM),relative viability ([1]; first compound 4 µM),relative viability ([2]; first compound 0.04 µM),relative viability ([2]; first compound 0.1265 µM),relative viability ([2]; first compound 0.4 µM),relative viability ([2]; first compound 1.265 µM),relative viability ([2]; first compound 4 µM),relative viability ([3]; first compound 0.04 µM),relative viability ([3]; first compound 0.1265 µM),relative viability ([3]; first compound 0.4 µM),relative viability ([3]; first compound 1.265 µM),relative viability ([3]; first compound 4 µM),relative viability ([4]; first compound 0.04 µM),relative viability ([4]; first compound 0.1265 µM),relative viability ([4]; first compound 0.4 µM),relative viability ([4]; first compound 1.265 µM),relative viability ([4]; first compound 4 µM)
NCI-H596,0.834,0.732,0.806,0.74,0.763,0.945,0.896,0.916,0.678,1.11,1.26,1.02,0.869,1.03,1.03,–,–,–,–,–
A-427,0.725,0.731,0.705,0.695,0.775,0.914,0.864,0.946,1.02,0.968,0.922,1.01,1.08,1.09,1.19,0.531,0.485,0.496,0.506,0.555
EMC-BAC-2,0.927,0.927,0.873,0.954,0.7,1.17,1.18,1.06,1.15,1.17,0.799,0.806,0.822,0.819,0.831,0.55,0.536,0.509,0.521,0.486
NCI-H441,0.487,0.47,0.342,0.346,0.512,0.56,0.684,1.03,0.401,0.635,0.752,0.509,0.714,0.563,0.504,0.251,0.271,0.181,0.26,0.248
LCLC-103H,0.727,0.677,0.65,0.66,0.67,–,–,–,–,–,1.06,1.06,1.06,1.14,1.16,0.463,0.462,0.428,0.497,0.488
HCC-827,0.557,0.51,0.539,0.626,0.555,1.03,0.969,1.03,1.05,0.984,0.932,0.936,0.91,0.946,0.938,0.437,0.517,0.473,0.501,0.495
NCI-H1355,0.44,0.448,0.392,0.39,0.387,0.909,0.942,0.924,0.9,0.806,0.811,0.825,0.814,0.771,0.719,0.46,0.4,0.406,0.409,0.376
NCI-H1734,0.719,0.632,0.755,0.638,0.707,0.818,0.803,0.8,0.808,0.803,0.887,0.803,0.765,0.884,0.814,0.319,0.367,0.369,0.319,0.254
HARA,0.637,0.648,0.41,0.723,0.761,1.16,1.15,1.14,1.08,1.21,1.01,0.933,0.885,0.791,0.927,0.2,0.236,0.237,0.222,0.268
HCC-15,0.425,0.373,0.364,0.356,0.381,0.702,0.732,0.684,0.677,0.675,0.886,0.833,0.855,0.805,0.905,0.789,0.773,0.616,0.708,0.485
LCLC-97TM1,0.194,0.212,0.196,0.189,0.186,0.57,0.444,0.39,0.392,0.487,0.204,0.166,0.185,0.19,0.201,0.236,0.217,0.247,0.218,0.245
RERF-LC-KJ,0.857,0.805,0.888,0.86,0.828,0.881,0.821,1.02,0.65,0.726,0.84,0.895,0.863,0.795,0.73,0.969,1,1.14,1.08,0.881
NCI-H1651,0.842,0.666,0.844,0.865,0.829,1.02,1.02,1.19,1.18,0.955,0.982,0.837,0.982,0.928,0.795,0.545,0.515,0.518,0.512,0.512
NCI-H1793,0.371,0.363,0.525,0.363,0.4,0.467,0.417,0.418,0.477,0.476,1.04,0.951,0.789,0.744,0.845,0.303,0.328,0.283,0.312,0.318
NCI-H2023,0.595,0.561,0.661,0.574,0.32,1.05,0.999,1.03,1.03,0.954,0.73,0.606,0.658,0.756,0.577,0.369,0.366,0.366,0.433,0.238
LC-2-ad,0.927,0.963,0.881,0.965,0.86,0.404,0.431,0.491,0.526,0.508,0.851,0.871,0.891,0.864,0.806,0.469,0.524,0.482,0.51,0.452
NCI-H1703,–,–,–,–,–,1.3,0.881,1,1.18,0.707,1.43,0.74,0.72,1.23,0.715,–,–,–,–,–
